According to paper PMC12670396, “Crizotinib- or Ceritinib-Conjugated Platinum(IV) Prodrugs As Potent Multiaction Agents Inducing Antiproliferative Effects in 2D and 3D Cancer Cell Models” (Journal of Medicinal Chemistry, 2025):

How the values were obtained:
CT26 and NCI-H2228 cells = assay: Extracellular HMGB1 (ELISA); type: cell-based; details: IC50 concentrations, 24 h
Protocol: The amount of HMGB1 in the medium was determined using an enzyme-linked immunosorbent assay (ELISA).
CT26 and NCI-H2228 cells were seeded in 48-well plates at a density of 5 × 10^4 cells/well and grown overnight. […] Aliquots of the supernatants were then withdrawn and processed using the HMGB1 Express ELISA kit (TECAN) according to the manufacturer’s instructions. The final absorbance, proportional to the HMGB1 amount, was read at 420 nm using a multimode SPARK reader (TECAN).

NCI-H2228 cells = assay: Cell cycle distribution (PI, flow cytometry); type: cell-based, human; details: NCI-H2228, 2 × IC50, 48 h
Protocol: The alterations in cell cycle profiles caused by the tested agents in NCI-H2228 cells may offer insight into their anticancer mechanism. To examine these changes, we utilized flow cytometry to analyze the cells treated with the representative agents (Figure and Figure S40).
It appears that the G2/M arrest is a common phenomenon in the crizotinib-containing group of NCI-H2228 cells under the conditions used.
Following 48 h of incubation, the cells were harvested and fixed with 70% ethanol. The next day, the cells were washed with PBS (2×) and stained with propidium iodide (PI) (50 μg mL^–1 with 100 μg mL^–1 RNase A) in Vindel’s solution (10 mM Tris-Cl (pH = 8.0), 10 mM NaCl, 0.1% Triton X-100) for 30 min at 37 °C. Cell cycle distribution was analyzed using flow cytometry (FACS Verse), 3 × 10^4 cells were analyzed following the exclusion of cell aggregates, and the data was analyzed with FCS Express 7 (DeNovo software, Glendale, CA). The results are expressed as MEAN from two experiments.

Compound | HMGB1 externalization relative to nontreated control (CT26 and NCI-H2228 cells) | cell cycle arrest (NCI-H2228 cells)
N.N.[Cl][Pt][Cl] [cisPt, cisplatin, reference compound] | 2 fold | –
CC(Oc1cc(-c2cnn(C3CCN(C(=O)[O][Pt]([Cl])([Cl])[O]C(=O)CCCc4ccccc4)CC3)c2)cnc1N)c1c(Cl)ccc(F)c1Cl.N.N (stereo not drawn) [compound 3, ctc-[Pt(NH3)2(crizotinib)(PhB)Cl2]] | – | induced arrest in the G2/M phase
Cc1cc(Nc2ncc(Cl)c(Nc3ccccc3S(=O)(=O)C(C)C)n2)c(OC(C)C)cc1C1CCN(C(=O)[O][Pt]([Cl])([Cl])[O]C(=O)CCCc2ccccc2)CC1.N.N [compound 7, ctc-[Pt(NH3)2(ceritinib)(PhB)Cl2]] | – | majority of the population in cells treated with 7 was in the S phase
